According to patent US11111238B2, “Coumarin derivatives, processes for their preparation and uses thereof for the treatment of cancer” (Lead Discovery Center GmbH, priority 2017, dated 2021):

molecular target: mitochondrial RNA-polymerase (POLRMT) (Mus musculus, UniProt Q8BKF1); assay: Homogeneous TR-FRET assay for mitochondrial transcription activity; type: biochemical; details: homogeneous TR-FRET assay according to Example 4; activity class
Text: The TR-FRET assay was basically conducted as described in WO2016/193,231A1, especially as described in example 1 (hereby incorporated by reference). With respect to the background of the mitochondrial transcription it is referred to Falkenberg et al. (2002) and Posse et al. (Posse et al., 2015). The method monitors the activity of mitochondrial RNA-polymerase via detection of the formation of its product, a 407 bp long RNA sequence. Detection of the product is facilitated by hybridization of two DNA-oligonucleotide probes to specific and adjacent sequences within the RNA product sequence. Upon annealing of the probes, two fluorophores that are coupled directly to an acceptor nucleotide probe (ATT0647, 5′) or introduced via a coupled streptavidin interacting with a biotinylated donor nucleotide probe on the other side (Europium cryptate, 3′) are brought into sufficient proximity to serve as a fluorescence-donor-acceptor pair as generally described in Walters and Namchuk (2003). Thus, a FRET signal at 665 nm is generated upon excitation at 340 nm.
Briefly, the protocol described here was applied for screening and activity determination in a low-volume 384-well microtiter plate with non-binding surface. For high-throughput application in the 1536-well microtiter plate format, volumes of the reagent mixes were adjusted, maintaining the volumetric ratio. Proteins POLRMT (NM_172551.3), TFAM (NM_009360.4) and TFB2 M (NM_008249.4) were diluted from their stocks to working concentrations of 150 nM, 1.8 μM and 330 nM respectively, in a dilution buffer containing 100 mM Tris-HCl pH 8.0, 200 mM NaCl, 10% (v/v) glycerole, 2 mM glutathione (GSH), 0.5 mM EDTA and 0.1 mg/mL BSA. Protein dilutions and template DNA, comprising a pUC18 plasmid encoding the mitochondrial light strand promoter, restriction linearized proximal to the promoter 3′-end (pUC-LSP), were mixed at the twofold final assay-concentration in a reaction buffer, containing 10 mM Tris-HCl pH 7.5, 10 mM MgCl2, 40 mM NaCl, 2 mM GSH, 0.01% (w/v) Tween-20 and 0.1 mg/mL BSA.
5 μL of this mix were dispensed, depending on the chosen microtiter plate format, using multi-channel pipettes or a Multidrop® dispenser (Thermo Fisher Scientific, Waltham Mass.) into the wells of a microtiter plate and incubated at room temperature (RT) for 10 min. Chemical compounds under scrutiny in the assay were applied using contact-free acoustic droplet-dispensing (Echo520® Labcyte Inc., Sunnyvale Calif.) from 10 mM compound stocks in 100% DMSO, to a final concentration of 10 μM or in serial dilution series of the required concentration range. Equal amounts of DMSO without any compound were added to positive control samples, followed by an incubation step at RT for 10 min.
The enzymatic reaction was started by the addition of 5 μL of a mix of […] in reaction buffer to a final concentration of 500 μM each. No nucleotide mix was added to negative control samples. The content of the wells was mixed using a VarioTeleshaker™ (Thermo Fisher Scientific, Waltham Mass.) at 1,500 rpm for 45 sec after which the microtiter plate was centrifuged at 500×g for 1 min. The samples were incubated for 2 h at RT with humidity control to avoid evaporation. The detection reagents were prepared in a buffer that was composed, such that the enzymatic reaction was terminated due to chelating of Mg-ions and increased ionic strength, containing 50 mM Tris-HCl pH 7.5, 700 mM NaCl, 20 mM EDTA, and 0.01% (w/v) Tween-20. Importantly Eu-cryptate-coupled streptavidin had to be pre-incubated with a 100-fold molar excess of a random sequence oligonucleotide for 10 min at RT in the dark to block unspecific binding of single stranded RNA to the protein. Subsequently, the blocked streptavidin(—Eu) was mixed with the DNA-probes on ice and kept away from light until use. […]

Sequence of mitochondrial RNA-polymerase (POLRMT) (Q8BKF1 42-1207): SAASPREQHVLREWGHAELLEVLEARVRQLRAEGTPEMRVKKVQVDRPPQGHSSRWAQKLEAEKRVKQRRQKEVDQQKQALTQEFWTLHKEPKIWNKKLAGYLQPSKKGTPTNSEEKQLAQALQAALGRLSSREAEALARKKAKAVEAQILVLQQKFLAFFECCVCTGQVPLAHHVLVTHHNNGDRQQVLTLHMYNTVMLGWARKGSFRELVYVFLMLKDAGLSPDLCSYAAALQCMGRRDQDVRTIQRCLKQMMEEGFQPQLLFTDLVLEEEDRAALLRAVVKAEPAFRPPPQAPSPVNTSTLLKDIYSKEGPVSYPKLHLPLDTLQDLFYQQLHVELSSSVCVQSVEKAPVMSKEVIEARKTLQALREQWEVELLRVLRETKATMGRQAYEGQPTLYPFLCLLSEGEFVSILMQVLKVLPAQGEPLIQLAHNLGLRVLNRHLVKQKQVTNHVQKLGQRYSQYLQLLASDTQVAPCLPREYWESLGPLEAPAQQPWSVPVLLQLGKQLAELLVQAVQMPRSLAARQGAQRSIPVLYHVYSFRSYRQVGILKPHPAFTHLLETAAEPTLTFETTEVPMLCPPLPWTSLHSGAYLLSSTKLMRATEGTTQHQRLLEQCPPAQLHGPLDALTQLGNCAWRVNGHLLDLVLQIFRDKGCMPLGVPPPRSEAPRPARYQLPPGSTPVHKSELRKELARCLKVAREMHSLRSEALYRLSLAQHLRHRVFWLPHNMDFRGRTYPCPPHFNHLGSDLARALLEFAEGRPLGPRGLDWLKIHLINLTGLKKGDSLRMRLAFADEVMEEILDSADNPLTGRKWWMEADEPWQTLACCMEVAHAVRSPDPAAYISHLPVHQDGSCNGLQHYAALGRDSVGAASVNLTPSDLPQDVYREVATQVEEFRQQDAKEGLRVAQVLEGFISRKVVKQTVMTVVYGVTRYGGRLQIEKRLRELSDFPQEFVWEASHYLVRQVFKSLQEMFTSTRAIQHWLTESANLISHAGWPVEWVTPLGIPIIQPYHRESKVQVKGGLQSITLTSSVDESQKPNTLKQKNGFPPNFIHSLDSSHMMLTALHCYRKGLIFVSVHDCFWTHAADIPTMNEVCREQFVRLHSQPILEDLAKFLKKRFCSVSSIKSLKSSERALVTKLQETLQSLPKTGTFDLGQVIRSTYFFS

Row | SMILES | IC50 [nM]
1 | CCOC(=O)C(C)Oc1ccc2c(-c3cccc(F)c3Cl)cc(=O)oc2c1 (centres unmarked) [Compound 57, ethyl 2-[4-(2-chloro-3-fluoro-phenyl)-2-oxo-chromen-7-yl]oxypropanoate] | 20 to 100
2 | COC(=O)C[C@@H]1CCN(C(=O)[C@@H](C)Oc2ccc3c(-c4ccc(F)cc4Cl)cc(=O)oc3c2)C1 [Compound 144, methyl 2-[(3S)-1-[(2R)-2-[4-(2-chloro-4-fluoro-phenyl)-2-oxo-chromen-7-yl]oxypropanoyl]pyrrolidin-3-yl]acetate] | 20 to 100
3 | CC(Oc1ccc2c(-c3ccc(F)cc3Cl)cc(=O)oc2c1)C(=O)NC1CC1 (centres unmarked) [Compound 90, 2-[4-(2-chloro-4-fluoro-phenyl)-2-oxo-chromen-7-yl]oxy-N-cyclopropyl-propanamide] | 20 to 100
4 | CCOC(=O)C(C)Oc1ccc2c(-c3ccc(F)cc3Cl)cc(=O)oc2c1 (centres unmarked) [Compound 82, Ethyl 2-((4-(2-chloro-4-fluorophenyl)-2-oxo-2H-chromen-7-yl)oxy)propanoate] | 20 to 100
5 | CCNC(=O)C(C)Oc1ccc2c(-c3cccc(F)c3Cl)cc(=O)oc2c1 (centres unmarked) [Compound 68, 2-[4-(2-chloro-3-fluoro-phenyl)-2-oxo-chromen-7-yl]oxy-N-ethyl-propanamide] | 20 to 100
6 | CC(Oc1ccc2c(-c3ccccc3Cl)cc(=O)oc2c1)C(=O)N1CCCC(S(=O)(=O)O)C1 (centres unmarked) [Compound 11, 1-[2-[4-(2-chlorophenyl)-2-oxo-chromen-7-yl]oxypropanoyl]piperidine-3-sulfonic acid] | < 20
7 | CC(C)NC(=O)C(C)Oc1ccc2c(-c3ccc(F)cc3Cl)cc(=O)oc2c1 (centres unmarked) [Compound 65, 2-[4-(2-chloro-4-fluoro-phenyl)-2-oxo-chromen-7-yl]oxy-N-isopropyl-propanamide] | 20 to 100
8 | Cc1ccccc1-c1cc(=O)oc2cc(OC(C)C(=O)N3CCC[C@H](C(=O)O)C3)ccc12 (stereo partly drawn) [Compound 3, (3S)-1-[2-[4-(o-tolyl)-2-oxo-chromen-7-yl]oxypropanoyl]piperidine-3-carboxylic acid] | < 20
9 | COC(=O)C1CCN(C(=O)[C@@H](C)Oc2ccc3c(-c4ccc(F)cc4Cl)cc(=O)oc3c2)CC1 [Compound 129, methyl 1-[(2R)-2-[4-(2-chloro-4-fluoro-phenyl)-2-oxo-chromen-7-yl]oxypropanoyl]piperidine-4-carboxylate] | < 20
10 | C[C@@H](Oc1ccc2c(-c3ccc(F)cc3Cl)cc(=O)oc2c1)C(=O)N1CCC[C@@H](C(=O)O)C1 [Compound 108, (3R)-1-[(2R)-2-[4-(2-chloro-4-fluoro-phenyl)-2-oxo-chromen-7-yl]oxypropanoyl]piperidine-3-carboxylic acid] | < 20
11 | C[C@@H](Oc1ccc2c(-c3ccccc3Cl)cc(=O)oc2c1)C(=O)N(C)C [Compound 45, (2R)-2-[4-(2-chlorophenyl)-2-oxo-chromen-7-yl]oxy-N,N-dimethyl-propanamide] | < 20
12 | Cc1ccccc1-c1cc(=O)oc2cc(OC(C)C(=O)N3CCCC(S(C)(=N)=O)C3)ccc12 (centres unmarked) [Compound 73, 7-[1-methyl-2-[3-(methylsulfonimidoyl)-1-piperidyl]-2-oxo-ethoxy]-4-(o-tolyl)chromen-2-one] | 20 to 100
13 | COC(=O)[C@@H]1CN(C(=O)[C@@H](C)Oc2ccc3c(-c4ccc(F)cc4Cl)cc(=O)oc3c2)CCN1 [Compound 135, methyl (2S)-4-[(2R)-2-[4-(2-chloro-4-fluoro-phenyl)-2-oxo-chromen-7-yl]oxypropanoyl]piperazine-2-carboxylate] | 100 to 1000
14 | CCOC(=O)[C@H]1CCCN(C(=O)C(CC)Oc2ccc3c(-c4ccccc4Cl)cc(=O)oc3c2)C1 (stereo partly drawn) [Compound 109, ethyl (3S)-1-[2-[4-(2-chlorophenyl)-2-oxo-chromen-7-yl]oxybutanoyl]piperidine-3-carboxylate] | 20 to 100
15 | Cc1ccccc1-c1cc(=O)oc2cc(OC(C)C(=O)Nc3ccc(CCO)cc3)ccc12 (centres unmarked) [Compound 19, N-[4-(2-hydroxyethyl)phenyl]-2-[4-(o-tolyl)-2-oxo-chromen-7-yl]oxy-propanamide] | < 20
16 | CC(Oc1ccc2c(-c3ccccc3Cl)cc(=O)oc2c1)C(=O)N1CCC(S(N)(=O)=O)C1 (centres unmarked) [Compound 77, 1-[2-[4-(2-chlorophenyl)-2-oxo-chromen-7-yl]oxypropanoyl]pyrrolidine-3-sulfonamide] | 20 to 100
17 | C[C@@H](Oc1ccc2c(-c3ccccc3Cl)cc(=O)oc2c1)C(=O)N1CC[C@H](C(=O)O)C1 [Compound 29, (3S)-1-[2-[4-(2-chlorophenyl)-2-oxo-chromen-7-yl]oxypropanoyl]pyrrolidine-3-carboxylic acid] | < 20
18 | CC(Oc1ccc2c(-c3cccc(F)c3Cl)cc(=O)oc2c1)C(=O)N1CCC[C@H](C(=O)O)C1 (stereo partly drawn) [Compound 50, (3S)-1-[2-[4-(2-chloro-3-fluoro-phenyl)-2-oxo-chromen-7-yl]oxypropanoyl]piperidine-3-carboxylic acid] | < 20
19 | Cc1ccccc1-c1cc(=O)oc2cc(OC(C)C(=O)N3CCC(CC(=O)O)CC3)ccc12 (centres unmarked) [Compound 60, 2-[1-[2-[4-(o-tolyl)-2-oxo-chromen-7-yl]oxypropanoyl]-4-piperidyl]acetic acid] | 20 to 100
20 | C[C@@H](Oc1ccc2c(-c3ccc(F)cc3Cl)cc(=O)oc2c1)C(=O)Nc1cncc(C(=O)O)c1 [Compound 148, 5-[[(2R)-2-[4-(2-chloro-4-fluoro-phenyl)-2-oxo-chromen-7-yl]oxypropanoyl]amino]pyridine-3-carboxylic acid] | < 20
21 | CC(Oc1ccc2c(-c3cccc(F)c3Cl)cc(=O)oc2c1)C(=O)NC1CC1 (centres unmarked) [Compound 61, 2-[4-(2-chloro-3-fluoro-phenyl)-2-oxo-chromen-7-yl]oxy-N-cyclopropyl-propanamide] | 20 to 100
22 | COC(=O)C[C@@H]1CCCN(C(=O)[C@@H](C)Oc2ccc3c(-c4ccccc4Cl)cc(=O)oc3c2)C1 [Compound 100, methyl 2-[(3S)-1-[(2R)-2-[4-(2-chlorophenyl)-2-oxo-chromen-7-yl]oxypropanoyl]-3-piperidyl]acetate] | < 20
23 | Cc1ccccc1-c1cc(=O)oc2cc(OC(C)C(=O)N3CCC(S(N)(=O)=O)C3)ccc12 (centres unmarked) [Compound 63, 1-[2-[4-(o-tolyl)-2-oxo-chromen-7-yl]oxypropanoyl]pyrrolidine-3-sulfonamide] | 20 to 100
24 | CCOC(=O)C(C)(C)Oc1ccc2c(-c3ccccc3Cl)cc(=O)oc2c1 [Compound 113, ethyl 2-[4-(2-chlorophenyl)-2-oxo-chromen-7-yl]oxy-2-methyl-propanoate] | 100 to 1000
25 | Cc1ccccc1-c1cc(=O)oc2cc(OC(C)C(=O)N3CCCC3)ccc12 (centres unmarked) [Compound 5, 7-(1-methyl-2-oxo-2-pyrrolidin-1-yl-ethoxy)-4-(o-tolyl)chromen-2-one] | < 20
26 | Cc1ccccc1-c1cc(=O)oc2cc(OC(C)C(=O)N3CCCC(C#N)C3)ccc12 (centres unmarked) [Compound 41, 1-[2-[4-(o-tolyl)-2-oxo-chromen-7-yl]oxypropanoyl]piperidine-3-carbonitrile] | < 20
27 | CC(Oc1ccc2c(-c3ccccc3Cl)cc(=O)oc2c1)C(=O)N1CCCC(C#N)C1 (centres unmarked) [Compound 48, 1-[2-[4-(2-chlorophenyl)-2-oxo-chromen-7-yl]oxypropanoyl]piperidine-3-carbonitrile] | < 20
28 | CCOC(=O)C(C)Oc1ccc2c(-c3ccccc3F)cc(=O)oc2c1 (centres unmarked) [Compound 175, ethyl 2-[4-(2-fluorophenyl)-2-oxo-chromen-7-yl]oxypropanoate] | 100 to 1000
29 | Cc1ccccc1-c1cc(=O)oc2cc(OC(C)C(=O)N3CCCC(S(=O)(=O)O)C3)ccc12 (centres unmarked) [Compound 10, 1-[2-[4-(o-tolyl)-2-oxo-chromen-7-yl]oxypropanoyl]piperidine-3-sulfonic acid] | < 20
